PubChem BioAssay (NCI)
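Cells were grown in 96-well plates and exposed to each compound for 48 hours at five concentrations; endpoints were interpolated linearly between bracketing concentrations, or set to the highest concentration if not reached. TGI denotes the concentration required for complete inhibition of growth.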

How the values were obtained:
Assay in all cases: NCI-60 cell line screen, 48 h
PC-3 prostate = test system: PC-3 prostate
MALME-3M melanoma = test system: MALME-3M melanoma
U251 CNS = test system: U251 CNS
SK-MEL-28 melanoma = test system: SK-MEL-28 melanoma
T-47D breast = test system: T-47D breast
HOP-92 NSCLC = test system: HOP-92 NSCLC
786-0 renal = test system: 786-0 renal
MDA-N = test system: MDA-N
A549 NSCLC = test system: A549 NSCLC
RXF 393 renal = test system: RXF 393 renal
KM12 colon = test system: KM12 colon
UACC-257 melanoma = test system: UACC-257 melanoma
HL-60(TB) leukemia = test system: HL-60(TB) leukemia
A498 renal = test system: A498 renal
NCI-H522 lung = test system: NCI-H522 lung
SW-620 colon = test system: SW-620 colon
HCT-15 colon = test system: HCT-15 colon
MDA-MB-435 = test system: MDA-MB-435
MOLT-4 leukemia = test system: MOLT-4 leukemia
IGROV1 ovarian = test system: IGROV1 ovarian
SF-268 CNS = test system: SF-268 CNS
K-562 leukemia = test system: K-562 leukemia
HS 578T breast = test system: HS 578T breast
RPMI-8226 leukemia = test system: RPMI-8226 leukemia
COLO 205 colon = test system: COLO 205 colon
HT29 colon = test system: HT29 colon
NCI-H226 lung = test system: NCI-H226 lung
TK-10 renal = test system: TK-10 renal
NCI-H460 lung = test system: NCI-H460 lung
MCF7 breast = test system: MCF7 breast
SK-MEL-2 melanoma = test system: SK-MEL-2 melanoma
ACHN renal = test system: ACHN renal
MDA-MB-231 breast = test system: MDA-MB-231 breast
SK-OV-3 ovarian = test system: SK-OV-3 ovarian
SNB-75 CNS = test system: SNB-75 CNS
HCT-116 colon = test system: HCT-116 colon
CCRF-CEM leukemia = test system: CCRF-CEM leukemia
SNB-19 CNS = test system: SNB-19 CNS
SF-539 CNS = test system: SF-539 CNS
M14 melanoma = test system: M14 melanoma
BT-549 breast = test system: BT-549 breast
UO-31 renal = test system: UO-31 renal
HCC-2998 colon = test system: HCC-2998 colon
SK-MEL-5 melanoma = test system: SK-MEL-5 melanoma
CAKI-1 renal = test system: CAKI-1 renal
OVCAR-4 ovarian = test system: OVCAR-4 ovarian
OVCAR-3 ovarian = test system: OVCAR-3 ovarian
NCI/ADR-RES ovarian = test system: NCI/ADR-RES ovarian
OVCAR-8 ovarian = test system: OVCAR-8 ovarian
DU-145 prostate = test system: DU-145 prostate
NCI-H23 lung = test system: NCI-H23 lung
SF-295 CNS = test system: SF-295 CNS
UACC-62 melanoma = test system: UACC-62 melanoma
HOP-62 NSCLC = test system: HOP-62 NSCLC
LOX IMVI melanoma = test system: LOX IMVI melanoma
OVCAR-5 ovarian = test system: OVCAR-5 ovarian
EKVX NSCLC = test system: EKVX NSCLC
SN12C renal = test system: SN12C renal

With `COc1ccc(OC)c2c1C(=O)C(=O)C(Cl)=C2O` the TGI (PC-3 prostate) was over 100 µM, the TGI (MALME-3M melanoma) was over 100 µM and the TGI (U251 CNS) was over 100 µM. For the same compound, the TGI (SK-MEL-28 melanoma) was over 100 µM, the TGI (T-47D breast) was over 100 µM and the TGI (HOP-92 NSCLC) was over 100 µM. The TGI (786-0 renal) was over 100 µM, the TGI (MDA-N) was over 100 µM and the TGI (A549 NSCLC) was over 100 µM. For the same compound, the TGI (RXF 393 renal) was over 100 µM, the TGI (KM12 colon) was over 100 µM and the TGI (UACC-257 melanoma) was over 100 µM. The TGI (HL-60(TB) leukemia) was over 100 µM, the TGI (A498 renal) was over 100 µM and the TGI (NCI-H522 lung) was over 100 µM. It also gave a TGI (SW-620 colon) of over 100 µM, a TGI (HCT-15 colon) of over 100 µM and a TGI (MDA-MB-435) of over 100 µM. It also gave a TGI (MOLT-4 leukemia) of over 100 µM, a TGI (IGROV1 ovarian) of over 100 µM and a TGI (SF-268 CNS) of over 100 µM. For the same compound, the TGI (K-562 leukemia) was over 100 µM, the TGI (HS 578T breast) was over 100 µM and the TGI (RPMI-8226 leukemia) was over 100 µM. The TGI (COLO 205 colon) was over 100 µM, the TGI (HT29 colon) was over 100 µM and the TGI (NCI-H226 lung) was over 100 µM. For the same compound, the TGI (TK-10 renal) was over 100 µM, the TGI (NCI-H460 lung) was over 100 µM and the TGI (MCF7 breast) was over 100 µM. It also gave a TGI (SK-MEL-2 melanoma) of over 100 µM, a TGI (ACHN renal) of over 100 µM and a TGI (MDA-MB-231 breast) of over 100 µM. It also gave a TGI (SK-OV-3 ovarian) of over 100 µM, a TGI (SNB-75 CNS) of over 100 µM and a TGI (HCT-116 colon) of over 100 µM. For the same compound, the TGI (CCRF-CEM leukemia) was over 100 µM, the TGI (SNB-19 CNS) was over 100 µM and the TGI (SF-539 CNS) was over 100 µM. For the same compound, the TGI (M14 melanoma) was over 100 µM, the TGI (BT-549 breast) was over 100 µM and the TGI (UO-31 renal) was over 100 µM. The TGI (HCC-2998 colon) was over 100 µM, the TGI (SK-MEL-5 melanoma) was over 100 µM and the TGI (CAKI-1 renal) was over 100 µM. The TGI (OVCAR-4 ovarian) was over 100 µM, the TGI (OVCAR-3 ovarian) was over 100 µM and the TGI (NCI/ADR-RES ovarian) was over 100 µM. It also gave a TGI (OVCAR-8 ovarian) of over 100 µM, a TGI (DU-145 prostate) of over 100 µM and a TGI (NCI-H23 lung) of over 100 µM. For the same compound, the TGI (SF-295 CNS) was over 100 µM, the TGI (UACC-62 melanoma) was over 100 µM and the TGI (HOP-62 NSCLC) was over 100 µM. It also gave a TGI (LOX IMVI melanoma) of over 100 µM and a TGI (OVCAR-5 ovarian) of over 100 µM.

Work on `CCOC(=O)/C=C\c1c(Cl)n(-c2ccccc2)c(=O)n(-c2ccccc2)c1=O` yielded a TGI (PC-3 prostate) of 33.3 µM, a TGI (MALME-3M melanoma) of 44 µM and a TGI (U251 CNS) of over 100 µM. The TGI (SK-MEL-28 melanoma) was 41.1 µM, the TGI (T-47D breast) was 42.2 µM and the TGI (HOP-92 NSCLC) was 36 µM. The TGI (786-0 renal) was 39.6 µM, the TGI (MDA-N) was 31.8 µM and the TGI (A549 NSCLC) was 60.1 µM. It also gave a TGI (RXF 393 renal) of 32.9 µM, a TGI (KM12 colon) of 35.8 µM and a TGI (UACC-257 melanoma) of 35.5 µM. It also gave a TGI (HL-60(TB) leukemia) of 23.4 µM, a TGI (A498 renal) of 50.8 µM and a TGI (NCI-H522 lung) of 46.5 µM. It also gave a TGI (SW-620 colon) of 61.6 µM, a TGI (HCT-15 colon) of 39.7 µM and a TGI (EKVX NSCLC) of 48.5 µM. The TGI (MDA-MB-435) was 44.8 µM, the TGI (MOLT-4 leukemia) was 87.2 µM and the TGI (IGROV1 ovarian) was 36.2 µM. The TGI (SF-268 CNS) was 44.7 µM, the TGI (HS 578T breast) was 65.2 µM and the TGI (COLO 205 colon) was 34.6 µM. It also gave a TGI (HT29 colon) of 38.4 µM, a TGI (NCI-H226 lung) of 50.8 µM and a TGI (TK-10 renal) of 32.3 µM. For the same compound, the TGI (NCI-H460 lung) was 34.1 µM, the TGI (MCF7 breast) was 46 µM and the TGI (SK-MEL-2 melanoma) was 33.5 µM. The TGI (ACHN renal) was 35.1 µM, the TGI (MDA-MB-231 breast) was 36.3 µM and the TGI (SK-OV-3 ovarian) was 37.2 µM. For the same compound, the TGI (SNB-75 CNS) was 29.2 µM, the TGI (HCT-116 colon) was 54.9 µM and the TGI (CCRF-CEM leukemia) was 58.7 µM. For the same compound, the TGI (SNB-19 CNS) was 31.6 µM, the TGI (SF-539 CNS) was 31.8 µM and the TGI (M14 melanoma) was 33.7 µM. It also gave a TGI (BT-549 breast) of 36.1 µM, a TGI (UO-31 renal) of 33.2 µM and a TGI (HCC-2998 colon) of 33.2 µM. It also gave a TGI (CAKI-1 renal) of 35.7 µM, a TGI (OVCAR-4 ovarian) of over 100 µM and a TGI (OVCAR-3 ovarian) of 36.1 µM. It also gave a TGI (NCI/ADR-RES ovarian) of 72.7 µM, a TGI (OVCAR-8 ovarian) of 34.7 µM and a TGI (DU-145 prostate) of 34.9 µM. For the same compound, the TGI (NCI-H23 lung) was 41.7 µM, the TGI (SF-295 CNS) was 40.2 µM and the TGI (UACC-62 melanoma) was 34.8 µM. For the same compound, the TGI (HOP-62 NSCLC) was 40 µM, the TGI (LOX IMVI melanoma) was 50.6 µM and the TGI (SN12C renal) was 36.4 µM. The TGI (OVCAR-5 ovarian) was 36.9 µM.
